Source: the NIST ThermoML archive (doi:10.1021/je100888h)

How the values were obtained:
[1] = 101 kPa, Liquid
[2] = xn = mol fraction of the nth substance listed; conditions: 101 kPa, Liquid

Cc1ccccc1O [2-methylphenol]
Conditions | mass density [kg/m3]
[1], 303.15 K | 1036.94

Cc1ccccc1O [2-methylphenol] + CCCCCCCC
[2], 303.15 K
Conditions | mass density [kg/m3]
x2 = 0.0779 | 998.31
x2 = 0.1634 | 958.43
x2 = 0.2569 | 918.23
x2 = 0.299 | 901.26
x2 = 0.36 | 877.71
x2 = 0.4277 | 853.18
x2 = 0.4797 | 835.08
x2 = 0.5787 | 803.61
x2 = 0.6607 | 779.19
x2 = 0.7664 | 750.13
x2 = 0.8032 | 740.51
x2 = 0.9143 | 713.35

Cc1ccccc1O [2-methylphenol] + Cc1ccccc1
[2], 303.15 K
Conditions | mass density [kg/m3]
x2 = 0.0529 | 1027.55
x2 = 0.0849 | 1021.91
x2 = 0.1409 | 1011.86
x2 = 0.203 | 1000.75
x2 = 0.2749 | 987.89
x2 = 0.341 | 975.95
x2 = 0.4343 | 959.13
x2 = 0.5187 | 943.88
x2 = 0.6073 | 927.88
x2 = 0.6873 | 913.43
x2 = 0.7547 | 901.26
x2 = 0.7852 | 895.73
x2 = 0.8381 | 886.24
x2 = 0.8481 | 884.43
x2 = 0.9068 | 873.9
x2 = 0.9346 | 869.01
x2 = 0.9737 | 862.08

Cc1ccccc1O [2-methylphenol] + O
[2], 303.15 K
Conditions | mass density [kg/m3]
x1 = 0.5953 | 1033.22
x1 = 0.675 | 1034.33
x1 = 0.8012 | 1035.55
x1 = 0.8184 | 1035.9
x1 = 0.8443 | 1036.16
x1 = 0.8903 | 1036.47
x1 = 0.8909 | 1036.26
x1 = 0.9409 | 1036.95

Cc1cccc(O)c1 [3-methylphenol]
Conditions | mass density [kg/m3]
[1], 303.15 K | 1025.95

Cc1cccc(O)c1 [3-methylphenol] + CCCCCCCC
[2], 303.15 K
Conditions | mass density [kg/m3]
x2 = 0.1197 | 970.59
x2 = 0.2473 | 916.86
x2 = 0.3868 | 864.19
x2 = 0.5012 | 825.55
x2 = 0.6387 | 783.91
x2 = 0.7818 | 745.29
x2 = 0.8773 | 721.91

Cc1cccc(O)c1 [3-methylphenol] + Cc1ccccc1
[2], 303.15 K
Conditions | mass density [kg/m3]
x2 = 0.0563 | 1016.89
x2 = 0.0853 | 1012.17
x2 = 0.1619 | 999.57
x2 = 0.2521 | 984.6
x2 = 0.3053 | 975.73
x2 = 0.3799 | 963.22
x2 = 0.4494 | 951.45
x2 = 0.5205 | 939.49
x2 = 0.7198 | 905.42
x2 = 0.8129 | 889.49
x2 = 0.8723 | 879.32
x2 = 0.9534 | 865.4

Cc1cccc(O)c1 [3-methylphenol] + O
[2], 303.15 K
Conditions | mass density [kg/m3]
x1 = 0.547 | 1020.94
x1 = 0.5754 | 1021.37
x1 = 0.6312 | 1022.09
x1 = 0.6558 | 1022.4
x1 = 0.704 | 1022.95
x1 = 0.7933 | 1023.97
x1 = 0.7997 | 1024.04
x1 = 0.8215 | 1024.36
x1 = 0.845 | 1024.52
x1 = 0.8635 | 1024.3
x1 = 0.8759 | 1024.67
x1 = 0.8839 | 1024.94
x1 = 0.9231 | 1025.3
x1 = 0.9426 | 1025.49
x1 = 0.9703 | 1025.78

Cc1ccc(O)cc1 [4-methylphenol]
Conditions | mass density [kg/m3]
[1], 303.15 K | 1025.9

Cc1ccc(O)cc1 [4-methylphenol] + Cc1ccccc1
[2], 303.15 K
Conditions | mass density [kg/m3]
x2 = 0.0588 | 1016.31
x2 = 0.1156 | 1007.12
x2 = 0.1715 | 997.89
x2 = 0.2813 | 979.91
x2 = 0.3882 | 962.16
x2 = 0.4914 | 944.32
x2 = 0.5885 | 929.7
x2 = 0.6906 | 912.26
x2 = 0.775 | 897.37
x2 = 0.8337 | 887.52
x2 = 0.886 | 877.87
x2 = 0.962 | 864.24

Cc1ccc(O)cc1 [4-methylphenol] + O
[2], 303.15 K
Conditions | mass density [kg/m3]
x1 = 0.548 | 1020.42
x1 = 0.6243 | 1021.77
x1 = 0.6758 | 1022.35
x1 = 0.74 | 1023.33
x1 = 0.7976 | 1023.92
x1 = 0.8897 | 1025.1

CCCCCCCC [octane]
Conditions | mass density [kg/m3]
[1], 303.15 K | 694.52

Oc1ccccc1 [phenol]
Conditions | mass density [kg/m3]
[1], 313.15 K | 1058.3

Oc1ccccc1 [phenol] + Cc1ccccc1
[2], 313.15 K
Conditions | mass density [kg/m3]
x2 = 0.0999 | 1033.8
x2 = 0.1576 | 1021.66
x2 = 0.2581 | 998.46
x2 = 0.3492 | 978.14
x2 = 0.4363 | 959.22
x2 = 0.5438 | 936.46
x2 = 0.6351 | 917.72
x2 = 0.7288 | 898.99
x2 = 0.8334 | 878.75
x2 = 0.9015 | 865.97

Oc1ccccc1 [phenol] + O
[2], 313.15 K
Conditions | mass density [kg/m3]
x1 = 0.3794 | 1038.84
x1 = 0.4653 | 1042.74
x1 = 0.6176 | 1048.12
x1 = 0.7052 | 1050.69
x1 = 0.8247 | 1054.06
x1 = 0.9099 | 1056.28

Cc1ccccc1 [toluene]
[1]
Conditions | mass density [kg/m3]
303.15 K | 857.47
313.15 K | 848.07
